According to US20220088016A1, “CANCER TREATMENT USING MULTI-TARGETED KINASE INHIBITOR IN COMBINATION OF PROTEIN KINASE BIOMARKERS” (ZHEJIANG CROWNMAB BIOTECH CO. LTD., priority 2019, published 2022):
pIC50: −log10 of the molar value.

Columns and labels:
[1] = biological target: ABL1 (Q252H)-nonphosphorylated (Homo sapiens, UniProt P00519, Q252H); experiment: Kinase profiling; type: binding; conditions: read-out: % Ctrl @ 1000 nM
ACVR1 = ACVR1 (Homo sapiens, UniProt Q04771); experiment: Kinase profiling; type: binding; conditions: read-out: % Ctrl @ 1000 nM
ACVRL1 = ACVRL1 (Homo sapiens, UniProt P37023); experiment: Kinase profiling; type: binding; conditions: read-out: % Ctrl @ 1000 nM
AURKC = AURKC (Homo sapiens, UniProt Q9UQB9); experiment: Kinase profiling; type: binding; conditions: read-out: % Ctrl @ 1000 nM
CAMK4 = CAMK4 (Homo sapiens, UniProt Q16566); experiment: Kinase profiling; type: binding; conditions: read-out: % Ctrl @ 1000 nM
CHEK2 = CHEK2 (Homo sapiens, UniProt O96017); experiment: Kinase profiling; type: binding; conditions: read-out: % Ctrl @ 1000 nM
CSK = CSK (Homo sapiens, UniProt P41240); experiment: Kinase profiling; type: binding; conditions: read-out: % Ctrl @ 1000 nM
Sequence of CSK (P41240 whole entry): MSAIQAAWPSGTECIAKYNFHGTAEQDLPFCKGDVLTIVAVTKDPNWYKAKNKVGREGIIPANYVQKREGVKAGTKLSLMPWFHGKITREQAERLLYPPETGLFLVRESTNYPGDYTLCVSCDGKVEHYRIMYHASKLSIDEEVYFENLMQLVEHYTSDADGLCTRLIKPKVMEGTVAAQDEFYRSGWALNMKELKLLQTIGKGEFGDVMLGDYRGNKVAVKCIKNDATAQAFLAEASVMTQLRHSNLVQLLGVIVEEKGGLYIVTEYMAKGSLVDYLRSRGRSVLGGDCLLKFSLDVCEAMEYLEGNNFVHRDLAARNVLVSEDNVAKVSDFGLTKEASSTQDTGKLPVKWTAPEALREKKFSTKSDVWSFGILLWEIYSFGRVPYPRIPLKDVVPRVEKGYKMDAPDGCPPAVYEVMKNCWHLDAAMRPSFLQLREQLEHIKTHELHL

EPHA1 = EPHA1 (Homo sapiens, UniProt P21709); experiment: Kinase profiling; type: binding; conditions: read-out: % Ctrl @ 1000 nM
FLT3-autoinhibited = FLT3-autoinhibited (Homo sapiens, UniProt P36888); experiment: Kinase profiling; type: binding; conditions: read-out: % Ctrl @ 1000 nM
FLT4 = FLT4 (Homo sapiens, UniProt P35916); experiment: Kinase profiling; type: binding; conditions: read-out: % Ctrl @ 1000 nM
GRK3 = GRK3 (Homo sapiens, UniProt P35626); experiment: Kinase profiling; type: binding; conditions: read-out: % Ctrl @ 1000 nM
HPK1 = HPK1 (Homo sapiens, UniProt Q92918); experiment: Kinase profiling; type: binding; conditions: read-out: % Ctrl @ 1000 nM
LKB1 = LKB1 (Homo sapiens, UniProt Q15831); experiment: Kinase profiling; type: binding; conditions: read-out: % Ctrl @ 1000 nM
Sequence of LKB1 (Q15831 whole entry): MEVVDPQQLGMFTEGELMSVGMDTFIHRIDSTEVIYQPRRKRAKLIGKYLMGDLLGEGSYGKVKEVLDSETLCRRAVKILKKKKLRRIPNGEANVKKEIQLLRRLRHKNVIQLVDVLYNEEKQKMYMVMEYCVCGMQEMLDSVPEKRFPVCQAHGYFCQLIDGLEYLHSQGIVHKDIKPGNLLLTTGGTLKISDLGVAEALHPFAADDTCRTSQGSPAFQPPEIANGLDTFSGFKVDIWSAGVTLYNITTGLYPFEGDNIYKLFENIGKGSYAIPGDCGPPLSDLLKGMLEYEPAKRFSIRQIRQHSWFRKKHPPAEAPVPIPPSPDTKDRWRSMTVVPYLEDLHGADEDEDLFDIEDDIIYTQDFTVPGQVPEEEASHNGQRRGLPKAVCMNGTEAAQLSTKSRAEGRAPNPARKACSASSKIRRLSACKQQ

MAP4K4 = MAP4K4 (Homo sapiens, UniProt O95819); experiment: Kinase profiling; type: binding; conditions: read-out: % Ctrl @ 1000 nM
MAPKAPK5 = MAPKAPK5 (Homo sapiens, UniProt Q8IW41); experiment: Kinase profiling; type: binding; conditions: read-out: % Ctrl @ 1000 nM
MINK = biological target: T1, MINK (Homo sapiens, UniProt Q8N4C8); experiment: Kinase profiling; type: binding; conditions: read-out: % Ctrl @ 1000 nM
T1 construct: T7 phage fusion (stated for most kinases of the panel only); made in house; host or cells: T7 phage in E. coli (BL21-derived) or HEK-293 cells

MLCK = biological target: T2, MLCK (Homo sapiens, UniProt Q32MK0); experiment: Kinase profiling; type: binding; conditions: read-out: % Ctrl @ 1000 nM
T2 construct: T7 phage fusion (stated for most kinases of the panel only); made in house; host or cells: T7 phage in E. coli (BL21-derived) or HEK-293 cells
T2 sequence (Q32MK0 whole entry, the tested form may be a part): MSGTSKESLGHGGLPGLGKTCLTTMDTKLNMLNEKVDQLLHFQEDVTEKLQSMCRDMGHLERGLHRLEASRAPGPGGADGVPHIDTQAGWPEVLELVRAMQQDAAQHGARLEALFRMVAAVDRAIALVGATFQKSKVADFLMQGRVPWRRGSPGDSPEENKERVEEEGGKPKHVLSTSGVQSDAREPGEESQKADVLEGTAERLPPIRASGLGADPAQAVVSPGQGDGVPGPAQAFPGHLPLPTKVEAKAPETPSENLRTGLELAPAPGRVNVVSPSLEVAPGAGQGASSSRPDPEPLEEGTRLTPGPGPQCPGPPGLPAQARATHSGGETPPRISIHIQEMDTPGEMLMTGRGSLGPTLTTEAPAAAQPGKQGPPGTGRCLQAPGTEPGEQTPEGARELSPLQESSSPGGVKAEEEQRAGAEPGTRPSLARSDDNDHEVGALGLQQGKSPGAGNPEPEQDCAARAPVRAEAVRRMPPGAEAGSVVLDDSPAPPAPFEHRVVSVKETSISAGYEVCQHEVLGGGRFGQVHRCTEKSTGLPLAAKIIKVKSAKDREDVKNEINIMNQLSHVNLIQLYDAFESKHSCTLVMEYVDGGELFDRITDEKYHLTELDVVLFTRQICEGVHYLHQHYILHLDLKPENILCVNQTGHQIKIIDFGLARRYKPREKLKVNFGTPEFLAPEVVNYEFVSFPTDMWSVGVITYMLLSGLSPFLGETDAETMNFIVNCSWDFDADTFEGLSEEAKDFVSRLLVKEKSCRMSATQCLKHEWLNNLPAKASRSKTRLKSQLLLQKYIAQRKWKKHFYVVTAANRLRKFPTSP

MYLK2 = biological target: T3, MYLK2 (Homo sapiens, UniProt Q9H1R3); experiment: Kinase profiling; type: binding; conditions: read-out: % Ctrl @ 1000 nM
T3 construct: T7 phage fusion (said for most assays); made in house

NEK1 = biological target: T4, NEK1 (Homo sapiens, UniProt Q96PY6); experiment: Kinase profiling; type: binding; conditions: read-out: % Ctrl @ 1000 nM
T4 construct: T7 phage fusion (said for most assays); made in house

NIM1 = biological target: T5, NIM1 (Homo sapiens, UniProt Q8IY84); experiment: Kinase profiling; type: binding; conditions: read-out: % Ctrl @ 1000 nM
T5 construct: T7 phage fusion (said for most assays); made in house

OSR1 = biological target: T6, OSR1 (Homo sapiens, UniProt O95747); experiment: Kinase profiling; type: binding; conditions: read-out: % Ctrl @ 1000 nM
T6 construct: T7 phage fusion (said for most assays); made in house
T6 sequence (O95747 whole entry, the tested form may be a part): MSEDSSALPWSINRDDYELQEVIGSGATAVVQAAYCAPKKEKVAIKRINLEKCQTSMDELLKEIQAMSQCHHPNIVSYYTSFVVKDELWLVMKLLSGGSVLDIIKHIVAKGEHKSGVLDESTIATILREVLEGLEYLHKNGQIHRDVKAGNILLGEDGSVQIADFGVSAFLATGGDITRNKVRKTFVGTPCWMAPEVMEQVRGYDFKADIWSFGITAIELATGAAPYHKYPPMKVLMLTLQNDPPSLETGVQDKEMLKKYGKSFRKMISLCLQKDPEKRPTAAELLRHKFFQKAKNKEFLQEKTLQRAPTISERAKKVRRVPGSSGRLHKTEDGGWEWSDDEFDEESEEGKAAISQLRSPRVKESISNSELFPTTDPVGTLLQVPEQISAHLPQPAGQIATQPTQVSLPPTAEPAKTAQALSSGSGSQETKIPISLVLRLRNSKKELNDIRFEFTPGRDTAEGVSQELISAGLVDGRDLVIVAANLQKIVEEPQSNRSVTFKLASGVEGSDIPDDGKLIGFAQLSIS

p38-alpha = p38-alpha (Homo sapiens, UniProt Q16539); experiment: Kinase profiling; type: binding; conditions: read-out: % Ctrl @ 1000 nM
PAK3 = PAK3 (Homo sapiens, UniProt O75914); experiment: Kinase profiling; type: binding; conditions: read-out: % Ctrl @ 1000 nM
PAK7 = PAK7 (Homo sapiens, UniProt Q9P286); experiment: Kinase profiling; type: binding; conditions: read-out: % Ctrl @ 1000 nM
PFTK1 = PFTK1 (Homo sapiens, UniProt O94921); experiment: Kinase profiling; type: binding; conditions: read-out: % Ctrl @ 1000 nM
PIK3C2G = PIK3C2G (Homo sapiens, UniProt O75747); experiment: Kinase profiling; type: binding; conditions: read-out: % Ctrl @ 1000 nM
Sequence of PIK3C2G (O75747 whole entry): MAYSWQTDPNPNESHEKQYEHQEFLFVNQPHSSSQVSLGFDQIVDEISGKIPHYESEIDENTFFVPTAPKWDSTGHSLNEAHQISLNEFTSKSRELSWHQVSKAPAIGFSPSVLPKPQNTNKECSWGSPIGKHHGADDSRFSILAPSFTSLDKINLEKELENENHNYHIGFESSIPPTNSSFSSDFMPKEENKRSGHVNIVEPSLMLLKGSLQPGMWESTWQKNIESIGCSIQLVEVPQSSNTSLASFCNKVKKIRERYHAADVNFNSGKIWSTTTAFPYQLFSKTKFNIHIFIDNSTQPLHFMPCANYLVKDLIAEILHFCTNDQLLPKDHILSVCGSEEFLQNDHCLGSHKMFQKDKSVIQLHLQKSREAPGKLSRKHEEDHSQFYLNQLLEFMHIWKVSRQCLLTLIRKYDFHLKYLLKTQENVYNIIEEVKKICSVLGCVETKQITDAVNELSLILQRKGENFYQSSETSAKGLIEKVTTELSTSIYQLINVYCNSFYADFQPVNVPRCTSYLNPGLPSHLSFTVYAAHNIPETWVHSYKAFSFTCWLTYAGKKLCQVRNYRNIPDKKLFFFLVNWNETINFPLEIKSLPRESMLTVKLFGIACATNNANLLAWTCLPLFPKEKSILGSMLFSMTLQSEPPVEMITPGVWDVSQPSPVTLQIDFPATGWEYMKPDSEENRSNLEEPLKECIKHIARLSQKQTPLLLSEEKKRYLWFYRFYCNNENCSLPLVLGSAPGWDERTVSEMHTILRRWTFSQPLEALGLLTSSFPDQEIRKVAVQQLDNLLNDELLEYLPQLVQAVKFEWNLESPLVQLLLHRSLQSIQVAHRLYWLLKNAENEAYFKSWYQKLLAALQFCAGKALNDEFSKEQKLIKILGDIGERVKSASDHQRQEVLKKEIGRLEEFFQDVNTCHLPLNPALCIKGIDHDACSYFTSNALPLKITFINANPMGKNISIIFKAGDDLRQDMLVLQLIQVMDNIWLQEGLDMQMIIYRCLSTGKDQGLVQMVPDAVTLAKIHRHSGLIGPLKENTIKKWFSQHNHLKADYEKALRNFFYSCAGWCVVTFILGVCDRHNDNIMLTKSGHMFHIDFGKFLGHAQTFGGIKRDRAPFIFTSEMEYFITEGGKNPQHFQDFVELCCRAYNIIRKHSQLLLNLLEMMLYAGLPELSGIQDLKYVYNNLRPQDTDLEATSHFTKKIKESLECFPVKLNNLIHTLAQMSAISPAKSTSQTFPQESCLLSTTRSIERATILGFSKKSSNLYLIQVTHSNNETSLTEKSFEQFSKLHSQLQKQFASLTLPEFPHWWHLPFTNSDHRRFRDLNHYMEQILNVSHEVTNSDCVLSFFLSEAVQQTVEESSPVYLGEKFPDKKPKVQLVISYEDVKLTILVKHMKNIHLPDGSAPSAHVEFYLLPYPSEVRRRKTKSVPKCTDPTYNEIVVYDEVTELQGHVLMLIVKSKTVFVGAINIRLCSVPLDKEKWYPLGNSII

PIK3CG = PIK3CG (Homo sapiens, UniProt P48736); experiment: Kinase profiling; type: binding; conditions: read-out: % Ctrl @ 1000 nM
Sequence of PIK3CG (P48736 whole entry): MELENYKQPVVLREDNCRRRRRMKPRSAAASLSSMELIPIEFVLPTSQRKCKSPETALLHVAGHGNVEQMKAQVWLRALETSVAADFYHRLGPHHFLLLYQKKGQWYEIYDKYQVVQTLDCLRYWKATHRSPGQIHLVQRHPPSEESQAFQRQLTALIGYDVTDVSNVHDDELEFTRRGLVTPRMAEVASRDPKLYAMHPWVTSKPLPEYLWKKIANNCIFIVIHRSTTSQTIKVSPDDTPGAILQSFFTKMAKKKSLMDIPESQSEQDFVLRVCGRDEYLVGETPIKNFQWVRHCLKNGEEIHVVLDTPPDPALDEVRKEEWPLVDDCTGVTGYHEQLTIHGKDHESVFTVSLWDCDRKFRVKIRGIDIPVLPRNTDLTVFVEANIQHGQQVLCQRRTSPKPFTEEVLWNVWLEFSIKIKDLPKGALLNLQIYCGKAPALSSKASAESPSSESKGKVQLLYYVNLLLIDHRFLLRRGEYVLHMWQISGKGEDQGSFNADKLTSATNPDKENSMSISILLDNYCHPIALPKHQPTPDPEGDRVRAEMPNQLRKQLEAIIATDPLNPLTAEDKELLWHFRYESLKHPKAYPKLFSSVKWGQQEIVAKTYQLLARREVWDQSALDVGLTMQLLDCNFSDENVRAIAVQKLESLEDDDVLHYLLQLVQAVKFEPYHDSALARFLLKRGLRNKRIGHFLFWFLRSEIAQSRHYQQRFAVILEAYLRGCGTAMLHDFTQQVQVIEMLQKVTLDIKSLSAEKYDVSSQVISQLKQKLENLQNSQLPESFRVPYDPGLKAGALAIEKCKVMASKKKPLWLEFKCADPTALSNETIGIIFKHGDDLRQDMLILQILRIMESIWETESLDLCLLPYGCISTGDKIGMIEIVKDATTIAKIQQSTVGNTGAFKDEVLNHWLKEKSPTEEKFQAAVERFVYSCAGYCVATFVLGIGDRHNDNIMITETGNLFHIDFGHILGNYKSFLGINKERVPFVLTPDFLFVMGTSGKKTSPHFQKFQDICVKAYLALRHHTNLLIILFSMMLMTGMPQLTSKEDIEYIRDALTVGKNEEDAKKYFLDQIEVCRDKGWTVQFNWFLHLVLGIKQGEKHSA

RET (M918T) = RET (M918T) (Homo sapiens, UniProt P07949, M918T); experiment: Kinase profiling; type: binding; conditions: read-out: % Ctrl @ 1000 nM
RIPK5 = RIPK5 (Homo sapiens, UniProt Q6XUX3); experiment: Kinase profiling; type: binding; conditions: read-out: % Ctrl @ 1000 nM
[2] = biological target: RSK4 (Kin.Dom.1-N-terminal) (Homo sapiens, UniProt Q9UK32); experiment: Kinase profiling; type: binding; conditions: read-out: % Ctrl @ 1000 nM
Sequence of RSK4 (Kin.Dom.1-N-terminal) (Q9UK32 73-330 limits assumed): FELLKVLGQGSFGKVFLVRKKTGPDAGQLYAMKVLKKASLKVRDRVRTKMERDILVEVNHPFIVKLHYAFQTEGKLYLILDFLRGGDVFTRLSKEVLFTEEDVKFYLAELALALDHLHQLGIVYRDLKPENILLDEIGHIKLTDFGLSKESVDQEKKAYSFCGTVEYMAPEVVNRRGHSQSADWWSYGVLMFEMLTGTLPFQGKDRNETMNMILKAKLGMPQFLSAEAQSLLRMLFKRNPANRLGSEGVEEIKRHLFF

SIK = SIK (Homo sapiens, UniProt P57059); experiment: Kinase profiling; type: binding; conditions: read-out: % Ctrl @ 1000 nM
SRPK2 = SRPK2 (Homo sapiens, UniProt P78362); experiment: Kinase profiling; type: binding; conditions: read-out: % Ctrl @ 1000 nM
STK35 = STK35 (Homo sapiens, UniProt Q8TDR2); experiment: Kinase profiling; type: binding; conditions: read-out: % Ctrl @ 1000 nM
TNK2 = TNK2 (Homo sapiens, UniProt Q07912); experiment: Kinase profiling; type: binding; conditions: read-out: % Ctrl @ 1000 nM
TRKC = TRKC (Homo sapiens, UniProt Q16288); experiment: Kinase profiling; type: binding; conditions: read-out: % Ctrl @ 1000 nM
BaF3 hCSF1R cell line = experiment: Proliferation of engineered BaF3 hCSF1R cell line (CTG assay); type: cell-based; conditions: Mus musculus, 72 h; engineered BaF3 hCSF1R; 3 days; CTG; read-out: IC50
Protocol: Two syngeneic cell lines M-NFS-60 and RAW264.7 and engineered BaF3 hCSFIR cell line were starved and then tested with CBT-102 and other test articles for 3 days in the temperature of 37° C., 5% CO2 and 95% humidity. The cell viability was then detected using CTG assay. The software of GraphPad Prism was used to calculate IC50.
CSF-1 dependent mouse myeloid M-NFS-60 cells were employed as target cells while a CSF-1 independent cell line Raw 264.7 was used as a negative control. In addition to CBT-102, the study also included 3 CSF-1R inhibitors: GW2580, BLZ945 and Pexidartinib.

## Cc1cc(Oc2cc(NC(=O)C3CC3)ncn2)ccc1NC(=O)Nc1ccc(Cl)c(C(F)(F)F)c1 [CBT-102]
[1]
  remaining activity at 1 µM: 6%
ACVR1
  remaining activity at 1 µM: 95%
ACVRL1
  remaining activity at 1 µM: 67%
AURKC
  remaining activity at 1 µM: 33%
CAMK4
  remaining activity at 1 µM: 100%
CHEK2
  remaining activity at 1 µM: 100%
CSK
  remaining activity at 1 µM: 29%
EPHA1
  remaining activity at 1 µM: 45%
FLT3-autoinhibited
  remaining activity at 1 µM: 90%
FLT4
  remaining activity at 1 µM: 0.05%
GRK3
  remaining activity at 1 µM: 97%
HPK1
  remaining activity at 1 µM: 23%
LKB1
  remaining activity at 1 µM: 100%
MAP4K4
  remaining activity at 1 µM: 3.4%
MAPKAPK5
  remaining activity at 1 µM: 93%
MINK
  remaining activity at 1 µM: 35%
MLCK
  remaining activity at 1 µM: 100%
MYLK2
  remaining activity at 1 µM: 98%
NEK1
  remaining activity at 1 µM: 100%
NIM1
  remaining activity at 1 µM: 82%
OSR1
  remaining activity at 1 µM: 96%
p38-alpha
  remaining activity at 1 µM: 0%
PAK3
  remaining activity at 1 µM: 100%
PAK7
  remaining activity at 1 µM: 91%
PFTK1
  remaining activity at 1 µM: 34%
PIK3C2G
  remaining activity at 1 µM: 100%
PIK3CG
  remaining activity at 1 µM: 100%
RET (M918T)
  remaining activity at 1 µM: 0.1%
RIPK5
  remaining activity at 1 µM: 100%
[2]
  remaining activity at 1 µM: 100%
SIK
  remaining activity at 1 µM: 95%
SRPK2
  remaining activity at 1 µM: 100%
STK35
  remaining activity at 1 µM: 93%
TNK2
  remaining activity at 1 µM: 93%
TRKC
  remaining activity at 1 µM: 37%
BaF3 hCSF1R cell line
  pIC50: 6.23
